According to patent US20250170252A1, “QUINONE PROTECTED FORMS AND CONJUGATES” (CAMBRIDGE ENTERPRISE LIMITED, priority 2022, published 2025):
“Also recorded” adds a separate entry of the source.

Columns and labels:
HL-60 cells [1] = test: N-acetyl cysteine cytotoxicity assay; type: cell-based; details: HL-60
Procedure: For assays involving cytotoxicity of β-lapachone derivatives with and without antioxidant N—-acetyl cysteine, HL-60 cells were plated into 24 well plates at a concentration of 2.5×10^5 cells/mL in 450 μL. To each well was then added 25 μL of drug diluted in PBS to obtain the correct in-plate drug concentration, and 25 μL of PBS or a stock of N-acetyl cysteine at 12 mM in PBS. DMSO was maintained at an in-plate concentration of 0.1%. After 96 h incubation, toxicity was assessed by counting of live cells using the Trypan Blue exclusion method with a Countess II Automated Cell Counter (ThermoFisher Scientific) according to the manufacturer's instructions. Cell viability was determined by division of average live cell number of treated wells by average live cell number for control wells treated with 0.1% DMSO. […] Values recorded are the mean of three repeat wells, with error bars representing the standard error of the mean for each concentration tested.

ovine blood [2] = test: Methaemoglobin analysis in sheep's blood; type: cell-based; details: in vitro ovine blood model, 1 h incubation, absorbance at 630 nm
Procedure: Defibrinated Oxoid™ sheep's blood (ThermoScientific) was diluted to a 5% v/v suspension in PBS pH 7.4. In a 96 well microtiter plate, 150 μL of blood suspension was added to 50 μL of serially diluted compound in PBS containing a 4× stock of each compound of interest. Serial dilution of compounds from DMSO stocks into PBS was performed to achieve an in-plate DMSO concentration of 0.1%. PBS buffer alone was used as a negative control. Three replicates were performed for each compound concentration analysed. The plate was incubated for the specified time at 37° C. The plate was then centrifuged at 3,500 rpm for 5 min. The supernatant was removed and cells lysed by resuspension in 100 μL of a solution of Triton-X-100 (1%) in PBS. Following this 80 μL of lysed cell contents were transferred to a second microtiter plate for UV measurement. To determine methaemoglobin increase, UV absorbance was measured immediately at 630 nm (MiniMax i3x Imager, Molecular Devices). Methaemoglobin increase was determined by (A630−A^0630)/(A^0630)×100, where A630 is the absorbance of the test well at 630 nm, and A^0630 is the absorbance of the negative control at 630 nm. Mean values and standard error of the mean of three independent replicates are plotted.

HL-60 cells [3] = test: Cellular ROS detection with DCFH-DA; type: cell-based; details: HL-60, 2′,7′-dichlorodihydrofluorescein diacetate
Procedure: To determine ROS generation by compounds in leukaemia cells, HL-60 cells were washed with PBS, then incubated in serum free media (10 mL of 1.6×10^6/mL cell concentration) with 2,7-dichlorofluorescin diacetate (DCFH-DA) at 20 μM for 30 min at 37° C. Following this, the cells were washed with PBS and resuspended in Fluorbrite-DMEM media (ThermoFisher) (10 mL). 450 μL of the cell mixture was seeded into wells of a clear flat bottomed 12 well plate, to which 50 μL of a 10× stock of the compounds in media had been already added, to achieve a final compound concentration of 50 μM. The 10× media stocks were made by 100-fold dilution of DMSO compound stocks, to ensure a final in-plate DMSO concentration of 0.1%. DMSO 0.1% only was used as a negative control. H2O2 was used as a positive control, for which 10 μL of a 30% aqueous solution was dissolved into 1 mL DMSO, then diluted 100-fold into media for plating, to give a final H2O2 concentration of […]. After plating the cells were immediately incubated at 37° C. in the dark for 15 min before the fluorescence of the wells (excitation 485 nm, emission 535 nm) was recorded (MiniMax i3x Imager, Molecular Devices). Values recorded are the mean of three repeat wells, with error bars representing the standard error of the mean.

[4] = In vitro redox-cycling ability, phenol red/horseradish peroxidase assay; type: biochemical; details: HRP/phenol-red reporter assay, absorbance at 610 nm; up to 25 μM
Procedure: In vitro redox cycling capability of compounds was assessed by phenol red/horseradish peroxidase (HRP) assay by adaption of a previously described protocol (Assay Drug Dev. Technol., 2008, 6, 505-518). Briefly, stocks were prepared as follows: (1) DTT to a concentration of 2.4 μM in PBS pH 7.4 buffer; (2) compound stocks in PBS pH 7.4 buffer to 3× the desired concentration by 1000× dilution of DMSO stocks; (3) a stock of phenol-red-HRP detection reagent containing 300 μg/mL phenol red and 180 μg/mL HRP enzyme in PBS pH 7.4 buffer; (4) a stock of 1 M NaOH in water; (5) a stock of 100 μM H2O2 in PBS prepared by addition of a 30% solution of H2O2 in water into 1000 μL of PBS. Into each well of a 96 well clear flat-bottomed plate was then added 40 μL of compound stock in PBS followed by 40 μL of DTT stock, followed immediately by 40 μL of phenol-red-HRP reagent. A positive control with 100 μM H2O2 added in place of compound was included. The plate was incubated in the dark at room temperature for 15 min. Following this 20 μL of 1 M NaOH was added to each well to terminate the reaction. Absorbance was immediately measured at 610 nm (MiniMax i3x Imager, Molecular Devices). Absorbance of treated wells was normalised to control wells treated with PBS only (zero redox cycling). All readings were performed in triplicate and error bars display standard error of the mean.

ovine blood [5] = test: Haemolysis in in vitro ovine blood model; type: cell-based, sheep; details: compared with β-lapachone 1
[6] = tested on: range of cancer cell lines, including leukaemia, breast, colon, and cervical cancer; test: Toxicity to a range of cancer cell lines (panel); type: cell-based; details: relative to parent drug 1
Procedure: Assays assessing cytotoxicity of β-lapachone and derivatives were performed by CellTiter-Blue assay (Promega) according to the manufacturer's instructions. Briefly, adherent cancer-cell lines were plated at 20,000 cells/well in 96 well plates or suspension cell lines were plated at a concentration of 2×10^5 cells/mL in 24 well plates. Compound stocks in media were made by dilution of DMSO stocks containing the compound of interest to obtain a final in-plate DMSO concentration of only 0.1%. Incubation was performed for 48 h. Following incubation, media was replaced with media containing CellTiter-Blue (Promega) in 1:10 dilution and the plates were incubated for 1.5-4 h. The fluorescence of the plates was recorded (excitation 555 nm, emission 585 nm, […] Reader, Molecular Devices). Cell viability was calculated by division of the fluorescence intensity of treated wells by that of the calculated average fluorescence intensity of replicate negative control wells containing cells with 0.1% DMSO only. Values and reported error bars represent the mean and standard error of the mean of three triplicate repeats for each concentration tested.

HL-60 cells [7] = test: Lysosomal inhibition assay with small molecule prodrugs; type: cell-based; details: HL-60, compared with untreated
Procedure: Assays to assess the effect of lysosomal activity on prodrugs were performed as follows: HL-60 cells were plated into 96 well plates at a concentration of 2.5×10^5 cells/mL in 180 μL media. Cells were treated with 10 μL of a stock of NH4Cl in PBS (to obtain an in-plate concentration of 3 or 30 mM), 10 μL of a dilution of a DMSO stock of E64d in PBS (to obtain an in-plate concentration of 30 μM), PBS only, or a dilution of DMSO in PBS. Cells were incubated for 30 min. Following this, 10 μL of a stock of test compound made by dilution of a DMSO stock into media was added. DMSO was present in-plate at a maximum of 0.2%. Cells were incubated overnight for 16 h. Following incubation, media was replaced with media containing CellTiter-Blue (Promega) in 1:4 dilution and the plates were incubated for 6 h. The fluorescence of the plates was recorded (excitation 555 nm, emission 585 nm, MiniMax i3x Reader, Molecular Devices). Cell viability was calculated by division of the fluorescence intensity of treated wells by that of the calculated average fluorescence intensity of the relevant negative control wells. Values and reported error bars represent the mean and standard error of the mean of three triplicate repeats for each concentration tested.

HL-60 = test: Viability assay with small molecule prodrugs, Trypan Blue exclusion, HL-60; type: cell-based
Procedure: (§1) For assays assessing cytotoxicity of β-lapachone versus small molecule dipeptide prodrugs, suspension cells were plated into 24 well plates at a density of 2.5×10^5 cells/mL in 240 μL. Serial dilutions of compound were made up in PBS. 60 μL of each stock of either PBS, or compound in PBS was added to the cells to achieve the desired final concentration. After the specified incubation time, toxicity was assessed by counting of live cells using the Trypan Blue exclusion method with a Countess II Automated Cell Counter (ThermoFisher Scientific) according to the manufacturer's instructions. Cell viability was determined by division of average live cell number of treated wells by average live cell number for control wells treated with PBS only. Values recorded are the mean of three repeat wells, with error bars representing the standard error of the mean for each concentration tested. IC50 values were calculated using GraphPad Prism software.

MOLM-13 = test: Viability assay with small molecule prodrugs, Trypan Blue exclusion, MOLM-13; type: cell-based; details: MOLM-13
Procedure: as §1

Row | SMILES | change of IC50 upon NAC addition (HL-60 cells [1]) | methaemoglobin formation (ovine blood [2]) | ROS generation (HL-60 cells [3]) | redox activity (in vitro redox-cycling capability) [4] | haemolysis of haemoglobin (ovine blood [5]) | decrease in toxicity [6] [fold] | toxicity after lysosomal deacidification (NH4Cl) or inhibition (E64d) (HL-60 cells [7]) | IC50 relative to 1 (HL-60) [fold] | IC50 relative to 1 (MOLM-13) [fold]
1 | CC1(C)CCC2=C(O1)c1ccccc1C(O)(Cc1ccccc1)C2=O (stereo not drawn) [Compound 24, 6-benzyl-6-hydroxy-2,2-dimethyl-2,3,4,6-tetrahydro-5H-benzo[h]chromen-5-one] | unchanged | did not occur | did not generate detectable ROS | no measurable redox activity; also recorded: non-redox active | lower | > 20 | – | – | –
2 | CC1(C)CCc2c3c(c4ccccc4c2O1)OCCO3 [Compound 25, 7,7-dimethyl-2,3,5,6-tetrahydro-1,4,8-trioxatriphenylene, reference compound] | – | did not occur | – | no measurable redox activity | lower | – | – | – | –
3 | CC(C)[C@H](NC(=O)OCc1ccccc1)C(=O)N[C@@H](CCCNC(N)=O)C(=O)Nc1ccc(CC2(O)C(=O)C3=C(OC(C)(C)CC3)c3ccccc32)cc1 (stereo partly drawn) [Compound 26, Cbz-Val-Cit-para-aminobenzyl β-lapa-ketol] | – | – | – | – | – | – | less toxic | 10 | 10
